Laboratory results: patent publication US4227003A, “Bromo-A-23187 derivatives” (Eli Lilly and Company, priority 1978, dated 1980)

Columns and labels:
[1] = system: Staphylococcus aureus (H-Heatley strain, NRRL B-314); assay: Bioassay for antibacterial activity; type: cell-based
From the text: The compounds of this invention are useful antibacterial agents. In this aspect, these compounds may be used in the same manner in which the parent antibiotic is used, as described in U.S. Pat. No. 3,923,823. A bioassay for the antibacterial activity of A-23187 has been described by J. E. Westhead in Antimicrobial Agents and Chemotherapy 11 (5), 916-918 (1977). The test organism for this bioassay is Staphylococcus aureus (H-Heatley strain, NRRL B-314).

[2] = Acute toxicity in mice, intraperitoneal; conditions: mouse, in vivo, ip
Method: The compounds of the present invention are, in general, less toxic than the parent antibiotic. Table II summarizes the acute toxicities of representative compounds in mice, expressed as LD50, when the compounds are administered intraperitoneally.

[3] = biological target: cation transport ATPase in liver mitochondria; assay: In vitro inhibition of cation transport ATPase in liver mitochondria; type: biochemical
From the text: In yet another aspect, the compounds of this invention are active as inhibitors of the enzyme ATPase. ATPase, an alkali-metal-sensitive enzyme found in cell membranes, is involved in the energy necessary for active transport. "Active transport" refers to the energy-requiring series of operations whereby intracellular and extracellular fluids maintain their compositions. Inhibitors of ATPase reduce the energy required for active transport. Table III summarizes the results of in vitro tests measuring inhibition of cation transport ATPase in liver mitochondria [measured as half effective concentration (Ic50) in mcg/ml].

[4] = cited from earlier work
[5] = Pfeiffer and Lardy, Biochemistry 15, 935 (1976)

| SMILES | Bioassay [1] [µg/mL] | LD50 [2] [mg/kg] | half effective concentration (Ic50), ATPase induced by CaCl2 [3] [µg/mL] | half effective concentration (Ic50), ATPase induced by K^+ monazomycin [3] [µg/mL] | discrimination for divalent over monovalent cations [4, 5] | transport of Mg^2+ versus Ca^2+ [4, 5] | selectivity for transport of divalent over monovalent cations ([4]; background, among approximately 100 known ionophores) |
| --- | --- | --- | --- | --- | --- | --- | --- |
| CNc1ccc2oc(CC3OC4(CCC3C)OC(C(C)C(=O)c3cc(Br)c[nH]3)C(C)CC4C)nc2c1C(=O)O (stereo not drawn) [23-bromo-A-23187 (free acid), 5-(methylamino)-2-[[3β,9α,11β-trimethyl-8-[1α-methyl-2-oxo-2-(4-bromo-1H-pyrrol-2-yl)ethyl]-1,7-dioxaspiro[5.5]undec-2β-yl]methyl]-4-benzoxazolecarboxylic acid] | 1766 | 23.7 | > 10 | 0.1 | – | – | – |
| CNc1ccc2oc(CC3OC4(CCC3C)OC(C(C)C(=O)c3cc(Br)c(Br)[nH]3)C(C)CC4C)nc2c1C(=O)O (stereo not drawn) [23,24-dibromo-A-23187 (free acid), 5-(methylamino)-2-[[3β,9α,11β-trimethyl-8-[1α-methyl-2-oxo-2-(4,5-dibromo-1H-pyrrol-2-yl)ethyl]-1,7-dioxaspiro[5.5]undec-2β-yl]methyl]-4-benzoxazolecarboxylic acid] | 1105 | 79.8 | 0.8 | 0.1 | – | – | – |
| CNc1ccc2oc(CC3OC4(CCC3C)OC(C(C)C(=O)c3ccc[nH]3)C(C)CC4C)nc2c1C(=O)O (centres unmarked) [A-23187 (free acid), reference compound] | 1060 | – | 0.5 | 0.5 | not complete | transports Mg^2+ with a similar efficiency to Ca^2+ | substantially selective for the transport of divalent over monovalent cations |
